Earlier results as cited in patent US20070015686A1, “Dietary supplement for enhancing skeletal muscle mass, decreasing muscle protein degradation, downregulation of muscle catabolism pathways, and decreasing catabolism of muscle cells” (priority 2005, published 2007).
Values belong to the compound of their own block, whether it stands above or below them.

Legend:
NF-κβ = settings: following administration, during inflammation and infection
[1] = ingestion of a concomitant carbohydrate
[2] = biological target: T1, chymotrypsin-like activity of the proteasome complex (Homo sapiens, UniProt P28074); settings: in vitro and in vivo; concentrations found in the serum of green tea drinkers
T1 sequence (P28074 60-263): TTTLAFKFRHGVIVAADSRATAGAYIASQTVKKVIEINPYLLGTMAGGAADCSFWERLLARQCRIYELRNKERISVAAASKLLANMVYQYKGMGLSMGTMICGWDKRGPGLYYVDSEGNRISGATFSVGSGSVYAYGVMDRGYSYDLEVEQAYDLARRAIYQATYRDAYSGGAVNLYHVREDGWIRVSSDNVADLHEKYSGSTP

[3] = laboratory tests; greater than vitamin C and vitamin E

Structure (SMILES): CC1=C(/C=C/C(C)=C/C=C/C(C)=C/C=C/C=C(C)/C=C/C=C(C)/C=C/C2=C(C)C(=O)[C@@H](O)CC2(C)C)C(C)(C)C[C@H](O)C1=O [astaxanthin]
NF-κβ activation / nuclear translocation (NF-κβ): decreased NF-κβ activation

Structure (SMILES): CC(C)=C[C@H]1C[C@](O)([C@H]2CC[C@]3(C)[C@H]2CCC2[C@@]4(C)CC[C@H](O[C@@H]5OC[C@@H](O)[C@H](O[C@@H]6O[C@H](CO)[C@@H](O)[C@H](O)[C@H]6O)[C@@H]5O[C@H]5O[C@H](C)[C@@H](O)[C@H](O)[C@@H]5O)C(C)(C)C4CC[C@]23C)[C@H](O)O1 (stereo partly shown) [phanoside]
insulin-releasing activity (pancreatic β-cells): potent insulin-releasing activity

Structure (SMILES): O=C(O[C@@H]1Cc2c(O)cc(O)cc2O[C@@H]1c1cc(O)c(O)c(O)c1)c1cc(O)c(O)c(O)c1 [EGCG, epigallocatechin gallate]
antioxidant activity [3]: potent antioxidant activity | inhibition of the chymotrypsin-like activity of the proteasome complex [2]: potent specific inhibitors

The next lines start with the values.

Creatine retention, increased efficiency [1]: up to 60%
Structure (SMILES): CN(CC(=O)O)C(=N)N [Creatine, N-methyl-N-guanyl Glycine]

inhibition of the chymotrypsin-like activity of the proteasome complex [2]: potent specific inhibitors
Structure (SMILES): O=C(O[C@@H]1Cc2c(O)cc(O)cc2O[C@@H]1c1ccc(O)c(O)c1)c1cc(O)c(O)c(O)c1 [ECG, epicatechin gallate]

inhibition of the chymotrypsin-like activity of the proteasome complex [2]: potent specific inhibitors
Structure (SMILES): O=C(OC[C@H]1O[C@@H](OC(=O)c2cc(O)c(O)c(OC(=O)c3cc(O)c(O)c(O)c3)c2)[C@H](OC(=O)c2cc(O)c(O)c(OC(=O)c3cc(O)c(O)c(O)c3)c2)[C@@H](OC(=O)c2cc(O)c(O)c(OC(=O)c3cc(O)c(O)c(O)c3)c2)[C@@H]1OC(=O)c1cc(O)c(O)c(OC(=O)c2cc(O)c(O)c(O)c2)c1)c1cc(O)c(O)c(OC(=O)c2cc(O)c(O)c(O)c2)c1 [tannic acid]
